Data from patent US6861434B2, “Antipsychotic aminomethyl derivatives of 1,3,7,8-tetrahydro-6,9-dioxa-1,3-diaza-cyclopenta[a]-naphthalen-2-one” (Wyeth, priority 2001, dated 2005).
Where a name gives a salt, the structure may show the parent alone.

System: not given
Test: not given

| melting point | SMILES |
| --- | --- |
| 200 to 207 °C (dec.) | O=c1[nH]c2ccc3c(c2[nH]1)OC(CNCCCc1c[nH]c2ccccc12)CO3 (stereo not drawn) (as salt: hydrochloride) [Example 8, 8-{[3-(1H-indol-3-yl)-propylamino]-methyl}-1,3,7,8-tetrahydro-6,9-dioxa-1,3-diaza-cyclopenta[a]naphthalen-2-one] |
| 149 to 151 °C | O=c1[nH]c2ccc3c(c2[nH]1)OC(CNCc1ccccc1)CO3 (stereo not drawn) (as salt: fumarate) (hydrate or solvate) [Example 1, 8-(Benzylamino-methyl)-1,3,7,8-tetrahydro-6,9-dioxa-1,3-diaza-cyclopenta[a]naphthalen-2-one] |
| 125 °C (dec.) | CC(=O)Nc1cccc(OCCCNCC2COc3ccc4[nH]c(=O)[nH]c4c3O2)c1 (stereo not drawn) (as salt: fumarate) (hydrate or solvate) [Example 7, N-(3-{3-[(2-Oxo-2,3,7,8-tetrahydro-1H-6,9-dioxa-1,3-diaza-cyclopenta[a]naphthalen-8-ylmethyl)-amino]propoxy}-phenyl)-acetamide] |
| 224 to 226 °C | O=c1[nH]c2ccc3c(c2[nH]1)OC(CNCCCCc1ccccc1)CO3 (stereo not drawn) (as salt: fumarate) (hydrate or solvate) [Example 2, 8-[(4-Phenyl-butylamino)-methyl]-1,3,7,8-tetrahydro-6,9-dioxa-1,3-diaza-cyclopenta[a]naphthalen-2-one] |
| > 250 °C | O=c1[nH]c2ccc3c(c2[nH]1)OC(CNCC12CC4CC(CC(C4)C1)C2)CO3 (stereo not drawn) (as salt: hydrochloride) (hydrate or solvate) [Example 4, 8-{[(Adamantan-1-ylmethyl)-amino]-methyl}-1,3,7,8-tetrahydro-6,9-dioxa-1,3-diaza-cyclopenta[a]naphthalen-2-one] |
| > 275 °C | O=c1[nH]c2ccc3c(c2[nH]1)OC(CN1CCC2C=CC=CC2C1)CO3 (stereo not drawn) (as salt: hydrochloride) [Example 5] |

| SMILES | melting point |
| --- | --- |
| O=c1[nH]c2ccc3c(c2[nH]1)OC(CN1CC=C(c2ccccc2)CC1)CO3 (stereo not drawn) (as salt: fumarate) (hydrate or solvate) [Example 3, 8-(4-Phenyl-5,6-dihydro-2H-pyridin-1-ylmethyl)-1,3,7,8-tetrahydro-6,9-dioxa-1,3-diaza-cyclopenta[a]naphthalen-2-one] | 205 to 209 °C |

Target: T1, dopamine D2 receptor (Rattus norvegicus, UniProt P61169)
T1 construct: from tissue; host or cells: rat striatal brain tissue homogenate
T1 sequence (P61169 whole entry): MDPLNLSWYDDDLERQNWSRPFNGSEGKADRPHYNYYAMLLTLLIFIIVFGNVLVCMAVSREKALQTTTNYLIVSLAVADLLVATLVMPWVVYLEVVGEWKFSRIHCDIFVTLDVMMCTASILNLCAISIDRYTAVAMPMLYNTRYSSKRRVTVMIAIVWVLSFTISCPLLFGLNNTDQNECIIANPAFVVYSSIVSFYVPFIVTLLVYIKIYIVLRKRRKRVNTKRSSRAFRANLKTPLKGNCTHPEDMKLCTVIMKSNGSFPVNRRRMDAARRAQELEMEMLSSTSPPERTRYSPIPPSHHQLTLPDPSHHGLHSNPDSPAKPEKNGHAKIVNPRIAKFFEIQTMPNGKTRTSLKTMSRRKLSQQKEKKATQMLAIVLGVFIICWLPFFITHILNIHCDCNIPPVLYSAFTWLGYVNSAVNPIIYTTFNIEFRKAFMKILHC
Test: Dopamine D2 receptor affinity, 3H-quinpirole binding in homogenized rat striatal brain tissue
Protocol: Affinity for the dopamine D2 receptor was established by a modification of the standard experimental test procedure of Seemen and Schaus, European Journal of Pharmacology 203: 105-109, 1991, wherein homogenized rat striatal brain tissue is incubated with ^3H-quinpirole and various concentrations of test compound, filtered and washed and counted in a Betaplate scintillation counter.

| IC50 [nM] | SMILES |
| --- | --- |
| 0.18 | O=c1[nH]c2ccc3c(c2[nH]1)OC(CNCCCCc1ccccc1)CO3 (stereo not drawn) [Example 2, 8-[(4-Phenyl-butylamino)-methyl]-1,3,7,8-tetrahydro-6,9-dioxa-1,3-diaza-cyclopenta[a]naphthalen-2-one] |
| 1.43 | O=C(c1ccc(F)cc1)C1CCN(C[C@H]2COc3ccc4[nH]c(=O)[nH]c4c3O2)CC1 [Example 6, 8-[4-(4-Fluoro-benzoyl)-piperidin-1-ylmethyl]-1,3,7,8-tetrahydro-6,9-dioxa-1,3-diaza-cyclopenta[a]naphthalen-2-one] |
| 0.84 | O=c1[nH]c2ccc3c(c2[nH]1)OC(CNCC12CC4CC(CC(C4)C1)C2)CO3 (stereo not drawn) [Example 4, 8-{[(Adamantan-1-ylmethyl)-amino]-methyl}-1,3,7,8-tetrahydro-6,9-dioxa-1,3-diaza-cyclopenta[a]naphthalen-2-one] |
| 0.55 | CC(=O)Nc1cccc(OCCCNCC2COc3ccc4[nH]c(=O)[nH]c4c3O2)c1 (stereo not drawn) [Example 7, N-(3-{3-[(2-Oxo-2,3,7,8-tetrahydro-1H-6,9-dioxa-1,3-diaza-cyclopenta[a]naphthalen-8-ylmethyl)-amino]propoxy}-phenyl)-acetamide] |
| 0.39 | O=c1[nH]c2ccc3c(c2[nH]1)OC(CNCc1ccccc1)CO3 (stereo not drawn) [Example 1, 8-(Benzylamino-methyl)-1,3,7,8-tetrahydro-6,9-dioxa-1,3-diaza-cyclopenta[a]naphthalen-2-one] |
| 6.78 | O=c1[nH]c2ccc3c(c2[nH]1)O[C@@H](CN1CCc2ccccc2C1)CO3 [Example 5] |
| 0.02 | O=c1[nH]c2ccc3c(c2[nH]1)OC(CNCCCc1c[nH]c2ccccc12)CO3 (stereo not drawn) [Example 8, 8-{[3-(1H-indol-3-yl)-propylamino]-methyl}-1,3,7,8-tetrahydro-6,9-dioxa-1,3-diaza-cyclopenta[a]naphthalen-2-one] |

| SMILES | IC50 [nM] |
| --- | --- |
| O=c1[nH]c2ccc3c(c2[nH]1)OC(CN1CC=C(c2ccccc2)CC1)CO3 (stereo not drawn) [Example 3, 8-(4-Phenyl-5,6-dihydro-2H-pyridin-1-ylmethyl)-1,3,7,8-tetrahydro-6,9-dioxa-1,3-diaza-cyclopenta[a]naphthalen-2-one] | 1.3 |
